Test results: US20150023884A1, “Antiperspirant Spray Devices and Compositions” (The Procter & Gamble Company, priority 2013, published 2015)

Text: (§1) Solubility may be determined by measuring the amount of light transmittance (a light transmittance value) through a simple mixture of the non-volatile silicone fluid and liquid activation enhancer at the same weight/weight concentrations as in a final antiperspirant composition.
as §1, with “Solubility of a liquid activation enhancer in a non-volatile silicone” for “Solubility”, “(light” for “(a light”
The Spectronic Genesys 10 Vis utilizes a tungsten-halogen light source and has a spectral bandwidth of 5 nm, a wavelength range of 325 to 1100 nm, accuracy of ±1 nm and a repeatability of ±0.5 nm. Readouts include absorbance, transmittance and concentration. The spectrophotometer is set to 640 nm wavelength and the percent transmittance mode/readout. Polystyrene spectrometer cuvettes having a 1 cm optical light path and transmittance between ˜340 nm and ˜900 nm are used. One suitable example of a spectrometer cuvette is available from VWR International LLC under Catalog #97000-584 having a 2.5 to 4.5 ml capacity. […] The sample cuvettes are shaken well just prior to taking a light transmittance reading.

With `CCCCCCCCCCCCCCCCCC(=O)OCCCC` [butyl stearate] the light transmittance value was “about 100%”.
In the case of `CCCCCCCCCCCCCC(C)C` [isohexadecane], the light transmittance value was “about 100%”.
